Results: patent US20240301408A1, “MICRORNA 195 COMPOSITIONS AND METHODS FOR TREATING COGNITIVE IMPAIRMENT” (UNITED STATES GOVERNMENT AS REPRESENTED BY THE DEPARTMENT …, priority 2021, published 2024)

Experiments:
[1] = test system: Aβ / amyloid plaque; experiment: brain oligomer Aβ42, soluble Aβ and amyloid plaque burden in EFAD mice after miR-195-5p over-expression; assay type: in vivo, mouse
Method: Stereotaxic injection and behavior studies. Eight to nine weeks old male and female ApoE3^+/+ and ApoE4^+/+ KI mice without 5×FAD background (N=19-23/group), or with 5×FAD background (N=15-17/group) were placed in the stereotaxic apparatus with AAV2 or scramble virus administered into the dorsal CA1 regions of bilateral hippocampal brain regions using pressure injection (Labonte B et al., Nat Med 2017, and Passini M A et al., The Journal of neuroscience 2006). Injection volumes (0.5-2.0 μl) were delivered over 10 min to avoid tissue damage. Six to nine months after viral delivery, mice were tested with the NOR task (Zhu L et al., Proc Natl Acad Sci USA 2015, Elder G A et al., J Neurotrauma 2012, and Howlett D R et al., Brain Res 2004). Mice were randomized for genotype and sex, and blinded throughout the behavior data collection and analysis, surgical manipulations, and sample collection.
Brain and neuronal sample preparation and biochemical analysis. Snap-frozen mouse hemi-brains or cultured neurons were harvested in lysis buffer (Lane R F et al., The Journal of neuroscience 2010) and processed via step-wise solubilization (Lane R F et al., The Journal of neuroscience 2010, and Kawarabayashi T et al. The Journal of neuroscience 2001) followed by SDS-PAGE to determine levels of synj1, dyn1, holoAPP, and CTFs. Levels of Aβ42, Aβ40, pTau, Tau and ApoE were determined using high-sensitive ELISA kits. Some tissue was used for miRNA and RNA extraction followed by qPCR and RNA-seq analysis. […]
Statistical analysis. […] Levels of miR-195-5p and miR-374 were normalized to U6 and RNU6B (internal controls) while synj1 mRNA normalized to GAPDH and 18s, and then expressed as Log2fold of changes when compared to controls. Levels of synj1, dyn1, pTau, Tau, and holoAPP were normalized to β-actin levels and expressed as a percentage of the control. Absolute Aβ42, Aβ40, pTau, Tau, and ApoE concentrations were quantitatively determined by ELISA and expressed as a percentage of the control. […] Pearson correlation coefficients were calculated to determine the linear relationship between the two variables. […]

[2] = test system: lysosomes of ApoE4+/+ astrocytes; experiment: lysosome size (Lysotracker, confocal) in iPSC-derived astrocytes; assay type: cell-based, human; conditions: control 36.5 μm^2
Method: Mouse Neuronal and human iPSC culture. Primary cortical neurons were cultured (Zhu L et al., Proc Natl Acad Sci USA 2015, and Zhu L et al., J Biol Chem 2013) before being fixed and stained for confocal microscopy analysis (Zeiss LSM) (Berg I et al., Nat Protoc 2010). In some conditions, bovine serum albumin (BSA) or receptor-associated protein (RAP) was included in the cultured media (N=3/group). Alternatively, cultured neurons were transfected with adeno-associated virus 2 (AAV2)-containing miR-195-5p or miR-374 or scramble controls for 5 days before subjected to analysis. The ApoE4^+/+ and ApoE3^+/+ iPSCs were differentiated into neural progenitor cells (NPCs) by dual SMAD inhibition followed by neural rosette selection and forebrain-specific patterning by 20 ng/ml FGF2 exposure (Bowles K R et al., PloS one 2019, and Tcw J et al., Stem cell reports 2017). These NPCs were purified by MACS for CD271^−/CD133^+ (Bowles K R et al., PloS one 2019) and differentiated to cortical neurons (Bardy C et al., Proc Natl Acad Sci USA 2015, and Paquet D et al., Nature 2016) and a homogeneous population of astrocytes (Tcw J et al., Stem cell reports 2017, and Shaltouki A et al., Stem Cells 2013) before subjected to viral transfection and confocal microscopy analysis. […]

[3] = test system: BV2 cells; experiment: LPS-induced pro-inflammatory cytokine release (IL-6, TNFα) in BV2 microglia with miR-195-5p over-expression; assay type: cell-based
Method: For example, LPS (at 0.2 μg/ml) treatment for overnight in BV2 cells leads to increased expression of pdcd4 and smad7 (FIG. 13A) and reduced expression of il10ra (FIG. 13C). […] Over-expression of miR-195-5p also attenuates LPS-induced pro-inflammatory cytokine release (IL-6 and TNFα; FIG. 13B). […] For these experiments, purified exosomes were derived from human APOE3/3 and 4/4 iPSC-derived astrocytes w/wo miR-195 over-expression detected by an exosome marker, ALIX. Fluorescence labeled exosomes were taken up by IBA1+ microglia cells.
Over-expression of miR-195-5p in microglia inhibits LPS-induced proinflammatory responses and augments anti-inflammatory responses. […] However, over-expression of miR-195-5p reduces expression levels of pdcd4 and smad7 and increases il10a expression in the presence of LPS. Over-expression of miR-195-5p also attenuates LPS-induced pro-inflammatory cytokine release (IL-6 and TNFα; FIG. 17B).

[4] = test system: lysosomes of ApoE4+/+ / ApoE3+/+ neurons; experiment: lysosome size and number (Lysotracker, confocal) in neurons of iPSC-derived neuron and astrocyte co-culture; assay type: cell-based, human
Method: Mouse Neuronal and human iPSC culture. Primary cortical neurons were cultured (Zhu L et al., Proc Natl Acad Sci USA 2015, and Zhu L et al., J Biol Chem 2013) before being fixed and stained for confocal microscopy analysis (Zeiss LSM) (Berg I et al., Nat Protoc 2010). In some conditions, bovine serum albumin (BSA) or receptor-associated protein (RAP) was included in the cultured media (N=3/group). Alternatively, cultured neurons were transfected with adeno-associated virus 2 (AAV2)-containing miR-195-5p or miR-374 or scramble controls for 5 days before subjected to analysis. The ApoE4^+/+ and ApoE3^+/+ iPSCs were differentiated into neural progenitor cells (NPCs) by dual SMAD inhibition followed by neural rosette selection and forebrain-specific patterning by 20 ng/ml FGF2 exposure (Bowles K R et al., PloS one 2019, and Tcw J et al., Stem cell reports 2017). These NPCs were purified by MACS for CD271^−/CD133^+ (Bowles K R et al., PloS one 2019) and differentiated to cortical neurons (Bardy C et al., Proc Natl Acad Sci USA 2015, and Paquet D et al., Nature 2016) and a homogeneous population of astrocytes (Tcw J et al., Stem cell reports 2017, and Shaltouki A et al., Stem Cells 2013) before subjected to viral transfection and confocal microscopy analysis. Alternatively, mouse cortical neurons derived from ApoE4^+/+ and ApoE3^+/+ KI mice with synj1^+/+ or synj1^−/− genotypes were co-cultured with ApoE4^+/+ and ApoE3^+/+ iPSC-derived pure astrocytes. In some experiments, cultured neurons were transfected with AAV2-containing miR-195-5p, scramble controls or miR195 inhibitors that specifically prevent miR-195-5p binding to its target mRNA before co-culturing with iPSC-derived astrocytes. Cultured iPSC-derived neurons and astrocytes were then incubated with lysotracker red for various time periods before fixation and double-stained for pTau and a nuclear marker DAPI (blue) for confocal microscopy analysis (Zeiss). N=4-5/condition.

[5] = ApoE4+/+ and ApoE3+/+ FAD mouse brains

UAGCAGCACAGAAAUAUUGGC (chemistry not given here) [miR-195-5p, over-expressed via AAV2-containing miR-195-5p from ABM Inc]
amyloid plaque burden (plaque numbers and plaque density) [1, 5]: dramatic reduction | brain oligomer Aβ42 measured by ELISA [1, 5]: dramatic reduction | soluble Aβ40, Aβ42 levels ([1]; E4FAD and E3FAD mouse brains): no significant changes | average size of lysosomes (area) [2]: no significant differences | LPS-induced pro-inflammatory cytokine release (IL-6 and TNFα) [3]: attenuates | lysosomal phenotypes compared to baseline ([4]; ApoE3+/+ neurons): No significant differences | neurons with lysosome diameter between 0 to 10 μm ([4]; ApoE4+/+ neurons): 53.3% | neurons with >10 lysosomes/cell ([4]; ApoE4+/+ neurons, baseline 18.4%): 1.7%
